Laboratory results from ChEMBL document CHEMBL1221345, “Cytotoxic flavonoids from the leaves of Cryptocarya chinensis” (J Nat Prod, 2010).
*1 amine or outer side, *2 acyl side, *3 side chain or, on linkers, in order; H or OH if unused. Where a SMILES comes first, the peptide text is derived from it. Bridges are numbered along the chain shown (N, C = ends). Roman numbers before positions name the chains, in order. [ ]: non-standard residue; d: D form. Actinocin(1to9) = Cc1c2oc3c(C)ccc(C(=O)[*:2])c3nc-2c(C(=O)[*:1])c(N)c1=O; NMeV = CN[C@H](C(=O)O)C(C)C; Sar = CNCC(=O)O

Key:
Format in all cases: functional, cell-based
[1] = system: SF-268; experiment: Cytotoxicity against human SF268 cells after 72 hrs by MTS reduction assay; settings: SF-268, 72 h
[2] = system: MCF7; experiment: Cytotoxicity against human MCF7 cells after 72 hrs by MTS reduction assay; settings: MCF7, 72 h
[3] = system: NCI-H460; experiment: Cytotoxicity against human NCI-H460 cells after 72 hrs by MTS reduction assay; settings: NCI-H460, 72 h
[4] = system: KB; experiment: Cytotoxicity against human KB cells

Structure (SMILES) | IC50 [1] | IC50 [2] | IC50 [3] | IC50 [4]
COc1cc2oc(-c3ccccc3)cc(=O)c2c(O)c1OC [MOSLOFLAVONE] | > 50 µM | > 50 µM | > 50 µM | 
CC1=C(C)C(=O)C(CC[C@](C)(O)CCC[C@H](C)CCC[C@H](C)CCCC(C)C)=C(C)C1=O | > 50 µM | > 50 µM | 37.3 µM | 
O=C1C[C@@H]2C3=C(C=C[C@@H]2O1)O[C@@H](c1ccccc1)CC3=O [CRYPTOCARYANONE A] | 5 µM | 5.1 µM | 4.3 µM | 2500 nM
COc1cc(C=O)ccc1O [VANILLIN] | > 50 µM | > 50 µM | > 50 µM | 
CO[C@@H]1CC2=C(C(=O)CC(c3ccccc3)O2)[C@H]2CC(=O)O[C@H]21 (stereo not given in full) | > 50 µM | > 50 µM | > 50 µM | 
O=C1C[C@H]2C3=C(C[C@H](O)[C@H]2O1)O[C@H](c1ccccc1)CC3=O [CRYPTOCHINONE B] | > 50 µM | > 50 µM | > 50 µM | 
CO[C@H]1CC2=C(C(=O)C[C@@H](c3ccccc3)O2)[C@@H]2CC(=O)O[C@H]12 [7-O-METHYLCRYPTOCHINONE B] | > 50 µM | > 50 µM | > 50 µM | 
CC(C)=CCC/C(C)=C/CC/C(C)=C/CC/C=C(\C)CC/C=C(\C)CCC=C(C)C | > 50 µM | > 50 µM | > 50 µM | 
O=C1C[C@@H]2C3=C(C[C@H](O)[C@@H]2O1)O[C@H](c1ccccc1)CC3=O [CRYPTOCHINONE A] | > 50 µM | > 50 µM | > 50 µM | 
COC(=O)C[C@H]1CC=CC(=O)/C1=C(O)/C=C/c1ccccc1 [INFECTOCARYONE] | 3.7 µM | 24.3 µM | 11 µM | 1700 nM
COc1cc(O)c2c(=O)c(OC)c(-c3ccccc3)oc2c1 | > 50 µM | > 50 µM | > 50 µM | 
COc1c(O)ccc(C(=O)/C=C/c2ccccc2)c1O [LARREIN] | > 50 µM | > 50 µM | > 50 µM | 
Cc1c2oc3c(C)ccc(C(=O)N[C@@H]4C(=O)N[C@H](C(C)C)C(=O)N5CCC[C@H]5C(=O)N(C)CC(=O)N(C)[C@@H](C(C)C)C(=O)O[C@@H]4C)c3nc-2c(C(=O)N[C@@H]2C(=O)N[C@H](C(C)C)C(=O)N3CCC[C@H]3C(=O)N(C)CC(=O)N(C)[C@@H](C(C)C)C(=O)O[C@@H]2C)c(N)c1=O [DACTINOMYCIN] (I: T[dV]P[Sar][NMeV] / II: T[dV]P[Sar][NMeV]; ester I:1-I:C, II:1-II:C; linker I:N-II:N via Actinocin(1to9)) | 0.016 µM | 0.103 µM | 0.008 µM | 
CO[C@H]1CC2=C(C(=O)C[C@@H](c3ccccc3)O2)[C@H]2CC(=O)O[C@@H]12 [7-O-METHYLCRYPTOCHINONE A] | > 50 µM | > 50 µM | > 50 µM | 
COc1cc(O)c2c(=O)c(OC)c(-c3ccccc3)oc2c1OC | > 50 µM | > 50 µM | > 50 µM | 
COc1cc(O)c2c(c1)O[C@H](c1ccccc1)CC2=O [PINOSTROBIN] | > 50 µM | > 50 µM | > 50 µM | 
